According to patent publication US9216998B2, “Tricyclic indole derivatives useful endothelial lipase inhibitors” (Janssen Pharmaceutica, NV, priority 2012, dated 2015):
pIC50: −log10 of the molar value.

What was measured:
Mouse EL = Mouse EL (Mus musculus (Mouse), UniProt Q9WVG5); assay: Endothelial lipase assay, cell surface lipase activity (mouse EL); assay type: cell-based; details: PLA1 substrate 10 μM, fluorescence rate
Experimental: [The source words this procedure for another species and reports this species under the same test.] (§1) To assay for cell surface lipase activity, cells expressing human endothelial lipase (EL) or LPL were plated in CellBIND® 384-well plates (Corning, Lowell, Mass.) in 25 μL serum free medium at a density of 2000 cells/well. After 18-24 hours incubation at 37° C., the medium was removed and replaced with 15 μL assay buffer [Hank's Buffered Saline Solution with 25 mM HEPES pH 7.2] and 15 μL PLA1 substrate for a final concentration of 10 μM using a Multidrop reagent dispenser. Fluorescence signal was monitored for 30 min at 37° C. on a Safire II plate reader in kinetic mode (60 cycles, kinetic interval: 30 seconds) with an excitation wavelength of 490 nm and an emission wavelength of 515 nm. […] The amount of BODIPY-labeled product generated was calculated at the 30 min time point as determined from standard curve analysis of purified BODIPY FL C5.

[1] = molecular target: human endothelial lipase (EL) (Homo sapiens (Human), UniProt Q9Y5X9); assay: Endothelial lipase assay, cell surface lipase activity (human EL); assay type: cell-based; details: cells expressing human EL, PLA1 substrate 10 μM, fluorescence rate
human endothelial lipase (EL), sequence (Q9Y5X9 21-500): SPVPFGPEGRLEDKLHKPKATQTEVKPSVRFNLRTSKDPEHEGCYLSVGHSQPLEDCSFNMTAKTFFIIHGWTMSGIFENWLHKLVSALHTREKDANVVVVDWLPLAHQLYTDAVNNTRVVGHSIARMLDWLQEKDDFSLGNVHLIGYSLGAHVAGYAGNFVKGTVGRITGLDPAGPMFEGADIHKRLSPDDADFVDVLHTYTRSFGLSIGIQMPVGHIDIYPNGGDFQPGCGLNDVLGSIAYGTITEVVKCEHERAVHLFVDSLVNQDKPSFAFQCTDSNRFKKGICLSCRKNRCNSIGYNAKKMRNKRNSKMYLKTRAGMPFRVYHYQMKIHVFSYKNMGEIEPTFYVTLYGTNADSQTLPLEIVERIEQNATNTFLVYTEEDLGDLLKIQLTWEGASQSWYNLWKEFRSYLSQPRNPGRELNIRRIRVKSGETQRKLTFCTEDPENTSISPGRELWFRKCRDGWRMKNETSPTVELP
Experimental: as §1

Mouse EL, sequence (Q9WVG5 21-500): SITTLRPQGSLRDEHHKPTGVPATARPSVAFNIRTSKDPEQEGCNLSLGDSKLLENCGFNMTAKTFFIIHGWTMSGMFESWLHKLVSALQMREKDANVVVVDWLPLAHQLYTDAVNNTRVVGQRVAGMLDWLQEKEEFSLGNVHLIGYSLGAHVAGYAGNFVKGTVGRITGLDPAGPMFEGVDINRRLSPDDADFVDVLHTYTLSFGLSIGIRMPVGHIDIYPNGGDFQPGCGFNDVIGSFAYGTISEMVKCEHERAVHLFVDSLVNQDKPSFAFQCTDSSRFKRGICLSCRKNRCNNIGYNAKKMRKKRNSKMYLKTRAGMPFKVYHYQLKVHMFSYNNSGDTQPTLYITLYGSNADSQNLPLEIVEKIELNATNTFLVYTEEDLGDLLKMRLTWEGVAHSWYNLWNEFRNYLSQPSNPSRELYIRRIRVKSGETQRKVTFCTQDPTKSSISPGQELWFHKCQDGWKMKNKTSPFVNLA

SMILES	pIC50 (Mouse EL)	pIC50 [1]
FC(F)(F)c1c(CCCc2ccccc2)n2c3c(cccc13)CC2 [Compound 1]	6.71	6.73
FC(F)(F)c1c(CCc2ccccc2)n2c3c(cccc13)CCC2 [Compound 2, 2-Phenethyl-1-(trifluoromethyl)-5,6-dihydro-4H-pyrrolo[3,2,1-ij]quinoline, reference compound]	7.32	7.66
FC(F)(F)c1c(Cc2ccccc2)n2c3c(cccc13)CCC2 [Compound 3]	7.02	6.94
FC(F)(F)c1c(CCCc2ccccc2)n2c3c(cccc13)CCC2 [Compound 4]	6.69	6.84
COc1cc2c3c(c1)c(C(F)(F)F)c(CCc1ccccc1)n3CCC2 [Compound 5]	7.77	7.85
Oc1cc2c3c(c1)c(C(F)(F)F)c(CCc1ccccc1)n3CCC2 [Compound 6]	6.87	7.15
FC(F)(F)c1c(CCc2ccccc2)n2c3c(cccc13)CCCC2 [Compound 9, 2-phenethyl-1-(trifluoromethyl)-4,5,6,7-tetrahydroazepino[3,2,1-hi]indole]	7.44	7.37
FC(F)(F)c1c(CCCc2ccccc2)n2c3c(cccc13)CCCC2 [Compound 11]	5.92	6.44
CC(C)NC(=O)N1CCn2c(CCc3ccccc3)c(C(F)(F)F)c3cccc(c32)C1 [Compound 12, N-isopropyl-6-phenethyl-7-(trifluoromethyl)-3,4-dihydro-[1,4]diazepino[6,7,1-hi]indole-2(1H)-carboxamide]	6.88	6.87
CC(C)(C)OC(=O)N1CCn2c(CCc3ccccc3)c(C(F)(F)F)c3cccc(c32)C1 [Compound 13, tert-butyl 6-phenethyl-7-(trifluoromethyl)-3,4-dihydro-[1,4]diazepino[6,7,1-hi]indole-2(1H)-carboxylate]	6.91	6.82
O=C(Nc1ccccc1)N1CCn2c(CCc3ccccc3)c(C(F)(F)F)c3cccc(c32)C1 [Compound 14, 6-phenethyl-N-phenyl-7-(trifluoromethyl)-3,4-dihydro-[1,4]diazepino[6,7,1-hi]indole-2(1H)-carboxamide]	6.79	6.77
FC(F)(F)c1c(CCc2ccccc2)n2c3c(cccc13)CNCC2 [Compound 15, 6-phenethyl-7-(trifluoromethyl)-1,2,3,4-tetrahydro-[1,4]diazepino[6,7,1-hi]indole]	6.17	6.16
CN(C)CC(=O)N1CCn2c(CCc3ccccc3)c(C(F)(F)F)c3cccc(c32)C1 [Compound 16, 2-(dimethylamino)-1-(6-phenethyl-7-(trifluoromethyl)-3,4-dihydro-[1,4]diazepino[6,7,1-hi]indol-2(1H)-yl)ethanone]	6.00	6.02
N=C(N)N1CCn2c(CCc3ccccc3)c(C(F)(F)F)c3cccc(c32)C1 [Compound 17, 6-phenethyl-7-(trifluoromethyl)-3,4-dihydro-[1,4]diazepino[6,7,1-hi]indole-2(1H)-carboximidamide]	5.44	5.32
NCC(=O)N1CCn2c(CCc3ccccc3)c(C(F)(F)F)c3cccc(c32)C1 [Compound 18, 2-amino-1-(6-phenethyl-7-(trifluoromethyl)-3,4-dihydro-[1,4]diazepino[6,7,1-hi]indol-2(1H)-yl)ethanone]	5.72	5.70
CC(=O)OCC(=O)N1CCn2c(CCc3ccccc3)c(C(F)(F)F)c3cccc(c32)C1 [Compound 20, 2-oxo-2-(6-phenethyl-7-(trifluoromethyl)-3,4-dihydro-[1,4]diazepino[6,7,1-hi]indol-2(1H)-yl)ethyl acetate]	6.32	6.35
O=C(CC(F)(F)F)N1CCn2c(CCc3ccccc3)c(C(F)(F)F)c3cccc(c32)C1 [Compound 21, 3,3,3-trifluoro-1-(6-phenethyl-7-(trifluoromethyl)-3,4-dihydro-[1,4]diazepino[6,7,1-hi]indol-2(1H)-yl)propan-1-one]	6.63	6.59
OCCN1CCn2c(CCc3ccccc3)c(C(F)(F)F)c3cccc(c32)C1 [Compound 23, 2-(6-phenethyl-7-(trifluoromethyl)-3,4-dihydro-[1,4]diazepino[6,7,1-hi]indol-2(1H)-yl)ethanol]	6.46	6.55
CS(=O)(=O)N1CCn2c(CCc3ccccc3)c(C(F)(F)F)c3cccc(c32)C1 [Compound 24, 2-(methylsulfonyl)-6-phenethyl-7-(trifluoromethyl)-1,2,3,4-tetrahydro-[1,4]diazepino[6,7,1-hi]indole]	6.47	6.73
FC(F)(F)c1c(CCc2ccccc2)n2c3c(cccc13)OCC2 [Compound 25, 5-phenethyl-6-(trifluoromethyl)-2,3-dihydro-[1,4]oxazino[2,3,4-hi]indole]	7.51	7.41
FC(F)(F)c1c(CCCc2ccccc2)n2c3c(cccc13)OCC2 [Compound 26]	6.21	6.38
FC(F)(F)c1c(CCCOc2ccccc2)n2c3c(cccc13)OCC2 [Compound 27]	6.97	7.09
FC(F)(F)c1c(CCCc2ccccc2)n2c3c(cccc13)SCC2 [Compound 28]	4.48	4.48
